Each molecule was assayed against GLP1R (Homo sapiens, UniProt P43220) (assay: GLP1R cAMP HTRF assay, HEK293/GLP-1R/CRE/Luc (HEK293T cells)). Settings: read-out: EC50.
Assay type: cell-based
Description: GLP-1R-mediated agonist activity was determined with a cell-based functional assay utilizing an HTRF (Homogeneous Time-Resolved Fluorescence) cAMP detection kit (cAMP Dynamic 2 Assay Kit; CisBio cat #62AM4PEC) that measures cAMP levels in the cell. The method is a competitive immunoassay between native cAMP produced by the cells and exogenous cAMP labeled with the dye d2. The tracer binding is visualized by a mAb anti-cAMP labeled with Cryptate. The specific signal (i.e., energy transfer) is inversely proportional to the concentration of cAMP in either standard or experimental sample.
A cell line stably expressing the receptor was isolated.
Varying concentrations of each compound to be tested (in DMSO) were diluted in DMSO to obtain 200× compound working solution first and then 50 nl compounds were added to a white 384-well assay plate (Greiner 784075) with ECHO. The final DMSO concentration was 0.5%. The compound concentration range may be adjusted at any time.
Cells were removed from cryopreservation, re-suspended in 5 mL of Dulbecco's Phosphate Buffered Saline (DPBS-Sigma Cat # D8537) and centrifuged at 900 g for 5 min at 22° C. The cell pellet was then re-suspended in 1 mL of assay buffer [DPBS with 500 μM IBMX (Sigma #15879) and 0.1% BSA (Sigma # A1933). IBMX and BSA were freshly added on the day of assay]. A 10 μL sample of the cell suspension was counted on an Invitrogen Countess II to determine cell viability and cell count per mL. The remaining cell suspension was then adjusted with assay buffer to deliver 1000 viable cells per well using a Matrix Combi Multidrop reagent dispenser. 10 μL cell suspensions were added to each well of the assay plate which already contains compound. The plate was sealed and incubated at 37° C. with 5% CO2 for 30 minutes.
Following the 30 minute incubation, 5 μL of labeled d2 cAMP and 5 μL of anti-cAMP antibody (both diluted 1:20 in cell lysis buffer; as described in the manufacturer's assay protocol) were added to each well of the assay plate. The plates w ere then incubated at room temperature and after 60 minutes, changes in the HTRF signal were read with an Envision multi-label plate reader using excitation of 330 nm and emissions of 615 and 665 nm. Raw data were converted to nM cAMP by interpolation from a cAMP standard curve (as described in the manufacturer's assay protocol) and the percent effect was determined relative to a saturating concentration of the full agonist GLP-17-37 (10 nM) included on each plate. EC50 determinations were made from agonist dose-response curves analyzed with a curve fitting program using a 4-parameter logistic dose response equation.
3) Anti-cAMP antibody-cryptate working solution preparation • c) The lyophilisate was reconstituted with appropriate amount of distilled water according to manufacturer's instruction to make working stock which can be aliquoted and frozen (−20° C.). • d) The working stock solution was diluted 1:20 in the conjugate and lysis buffer before use. Procedures Procedures for Cell Suspension Preparation • 1. Frozen cells were thawed very briefly in a 37° C. water bath under sterile conditions until just before ice completely melt (for about 1 minute) with a continuous agitation. Caution was taken because a longer incubation could result in cell death. • 2. DMSO was removed from the media by carefully transferring thawed cells to a sterile 15/50 mL tube, filling a tube with 10-50 mL of complete media pre-warmed to 37° C., and allowing the cells to sit 5 min before centrifuging at 900 rpm for 5 minutes for cell collection. • 3. The cells were resuspended with assay buffer. • 4. For stable GLP1-R assay, the optimized cell density is 1000 cells/well. Caution was taken because cell density optimization was crucial and needed to be optimized in different laboratories. The level of cAMP produced by the cells must fall within the linear range of the standard curve.

GLP1R, sequence (P43220 24-463): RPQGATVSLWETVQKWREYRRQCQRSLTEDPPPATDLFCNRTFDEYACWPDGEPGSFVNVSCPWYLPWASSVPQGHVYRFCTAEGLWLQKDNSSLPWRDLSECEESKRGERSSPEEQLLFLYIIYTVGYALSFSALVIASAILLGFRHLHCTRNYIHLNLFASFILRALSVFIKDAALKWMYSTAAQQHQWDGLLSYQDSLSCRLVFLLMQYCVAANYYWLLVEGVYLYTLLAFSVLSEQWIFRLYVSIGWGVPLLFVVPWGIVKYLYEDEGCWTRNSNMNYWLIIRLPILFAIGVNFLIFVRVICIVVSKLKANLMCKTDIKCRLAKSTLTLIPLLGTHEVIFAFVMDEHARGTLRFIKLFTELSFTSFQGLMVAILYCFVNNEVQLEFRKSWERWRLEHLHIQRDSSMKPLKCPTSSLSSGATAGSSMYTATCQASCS

Row | Structure (SMILES) | EC50 [nM]
1 | O=C(O)c1ccc2nc(CN3CC=C(c4cccc(OCc5ccc(Cl)cc5)n4)CC3)n(C[C@@H]3CCO3)c2c1 [Compound 44, (S)-2-((6-((4-chlorobenzyl)oxy)-3′,6′-dihydro-[2,4′-bipyridin]-1′(2′H)-yl)methyl)-1-(oxetan-2-ylmethyl)-1H-benzo[d]imidazole-6-carboxylic acid] | ≤ 15
2 | O=C(O)c1ccc2nc(CN3CC=C(c4cc5cc[nH]c5c(OCc5ccc(Cl)cc5F)n4)CC3)n(C[C@@H]3CCO3)c2c1 [Compound 48, (S)-2-((4-(7-((4-chloro-2-fluorobenzyl)oxy)-1 h-pyrrolo[2,3-c]pyridin-5-yl)-3,6-dihydropyridin-1(2H)-yl)methyl)-1-(oxetan-2-ylmethyl)-1 h-benzo[d]imidazole-6-carboxylic acid] | ≤ 150
3 | O=C(O)c1ccc2cc(CN3CCN(c4cccc(OCc5ccc(Cl)cc5F)n4)CC3)n(C[C@@H]3CCO3)c2c1 [Compound 49, (S)-2-((4-(6-(4-chloro-2-fluorobenzyloxy)pyridin-2-yl)piperazin-1-yl)methyl)-1-(oxetan-2-ylmethyl)-1 h-indole-6-carboxylic acid] | > 1000
4 | Cn1c(CN2CCN(c3cccc(OCc4ccc(Cl)cc4F)n3)CC2)cc2ccc(C(=O)O)cc21 [Compound 50, 2-((4-(6-(4-chloro-2-fluorobenzyloxy)pyridin-2-yl)piperazin-1-yl)methyl)-1-methyl-1 h-indole-6-carboxylic add] | > 1000
5 | O=C(O)c1ccc2nc(CN3CCC(n4c(=O)n(CCc5ccc(Cl)cc5F)c5ccccc54)CC3)n(C[C@@H]3CCO3)c2c1 [Compound 52, (S)-2-((4-(3-(4-chloro-2-fluorophenethyl)-2-oxo-2,3-dihydro-1 h-benzo[d]imidazol-1-yl)piperidin-1-yl)methyl)-1-(oxetan-2-ylmethyl)-1 h-benzo[d]imidazole-6-carboxylic acid] | > 1000
6 | O=C(O)c1ccc2nc(CN3CC=C(c4cc5nc[nH]c5c(OCc5ccc(Cl)cc5F)n4)CC3)n(C[C@@H]3CCO3)c2c1 [Compound 58, (S)-2-((4-(4-((4-chloro-2-fluorobenzyl)oxy)-3H-imidazo[4,5-c]pyridin-6-yl)-3,6-dihydropyridin-1(2H)-yl)methyl)-1-(oxetan-2-ylmethyl)-1H-benzo[d]imidazole-6-carboxylic acid] | > 1000
7 | O=C(O)c1ccc2nc(CN3CC=C(c4ccc5c(n4)N(Cc4ccc(Cl)cc4F)CCCO5)CC3)n(C[C@@H]3CCO3)c2c1 [Compound 59, (S)-2-((4-(5-(4-chloro-2-fluorobenzyl)-2,3,4,5-tetrahydropyrido[3,2-b][1,4]oxazepin-7-yl)-3,6-dihydropyridin-1(2H)-yl)methyl)-1-(oxetan-2-ylmethyl)-1H-benzo[d]imidazole-6-carboxylic add] | > 1000
8 | O=C(O)c1ccc2nc(CN3CC=C(c4cccc(OC5CCCc6cc(Cl)ccc65)n4)CC3)n(C[C@@H]3CCO3)c2c1 (stereo partly drawn) [Compound 60, 2-((6-((6-chloro-1,2,3,4-tetrahydronaphthalen-1-yl)oxy)-3′,6′-dihydro-[2,4′-bipyridin]-1′(2′H)-yl)methyl)-1-(((S)-oxetan-2-yl)methyl)-1H-benzo[d]imidazole-6-carboxylic acid] | ≤ 1000
9 | O=C(O)c1ccc2nc(CN3CC=C(c4cccc(NC5CCOc6cc(Cl)ccc65)n4)CC3)n(C[C@@H]3CCO3)c2c1 (stereo partly drawn) [Compound 61, 2-((4-(6-(7-chlorochroman-4-ylamino)pyridin-2-yl)-5,6-dihydropyridin-1(2H)-yl)methyl)-1-((S)-oxetan-2-ylmethyl)-1H-benzo[d]imidazole-6-carboxylic acid] | ≤ 1000
10 | O=c1[nH]c(-c2ccc3nc(CN4CC=C(c5cccc(OCc6ccc(Cl)cc6F)n5)CC4)n(C[C@@H]4CCO4)c3c2)no1 [Compound 62, (S)-3-(2-((4-(6-(4-chloro-2-fluorobenzyloxy)pyridin-2-yl)-5,6-dihydropyridin-1(2H)-yl)methyl)-1-(oxetan-2-ylmethyl)-1H-benzo[d]imidazol-6-yl)-1,2,4-oxadiazol-5(4H)-one] | ≤ 150
11 | O=C(O)c1ccc2nc(CN3CC=C(c4ccc(F)c(OCc5ccc(Cl)cc5F)c4F)CC3)n(C[C@@H]3CCO3)c2c1 [Compound 63, (S)-2-((4-(3-(4-chloro-2-fluorobenzyloxy)-2,4-difluorophenyl)-5,6-dihydropyridin-1(2H)-yl)methyl)-1-(oxetan-2-ylmethyl)-1H-benzo[d]imidazole-6-carboxylic acid] | ≤ 1000
12 | Cc1ccc(C2=CCN(Cc3nc4ccc(C(=O)O)cc4n3C[C@@H]3CCO3)CC2)cc1OCc1ccc(Cl)cc1F [Compound 64, (S)-2-((4-(3-((4-chloro-2-fluorobenzyl)oxy)-4-methylphenyl)-3,6-dihydropyridin-1(2H)-yl)methyl)-1-(oxetan-2-ylmethyl)-1H-benzo[d]imidazole-6-carboxylic acid] | ≤ 150
13 | N#CC1(c2cccc(OCc3ccc(Cl)cc3F)n2)CCN(Cc2nc3ccc(C(=O)O)cc3n2C[C@@H]2CCO2)CC1 [Compound 66, (S)-2-((4-(6-((4-chloro-2-fluorobenzyl)oxy)pyridin-2-yl)-4-cyanopiperidin-1-yl)methyl)-1-(oxetan-2-ylmethyl)-1H-benzo[d]imidazole-6-carboxylic acid] | > 1000

Results, then the molecule that gave them:

Row | EC50 [nM] | Structure (SMILES)
14 | > 1000 | O=C(O)c1ccc2nc(CN3CC=C(n4cccc(OCc5ccc(Cl)cc5F)c4=O)CC3)n(C[C@@H]3CCO3)c2c1 [Compound 51, (S)-2-((4-(3-(4-chloro-2-fluorobenzyloxy)-2-oxopyridin-1(2H)-yl)-5,6-dihydropyridin-1(2H)-yl)methyl)-1-(oxetan-2-ylmethyl)-1 h-benzo[d]imidazole-6-carboxylic acid]
15 | > 1000 | O=C(O)c1ccc2nc(CN3CCC(N4Cc5ccccc5N(CCc5ccc(Cl)cc5F)C4=O)CC3)n(C[C@@H]3CCO3)c2c1 [Compound 53, (S)-2-((4-(1-(4-chloro-2-fluorophenethyl)-2-oxo-1,4-dihydroquinazolin-3(2H)-yl)piperidin-1-yl)methyl)-1-(oxetan-2-ylmethyl)-1H-benzo[d]imidazole-6-carboxylic acid]
16 | > 1000 | O=C(O)c1ccc2nc(CN3CCC(N4CCc5ccc(-c6ccc(Cl)cc6F)cc5C4=O)CC3)n(C[C@@H]3CCO3)c2c1 [Compound 54, (S)-2-((4-(7-(4-chloro-2-fluorophenyl)-1-oxo-3,4-dihydroisoquinolin-2(1H)-yl)piperidin-1-yl)methyl)-1-(oxetan-2-ylmethyl)-1 h-benzo[d]imidazole-6-carboxylic acid]
17 | ≤ 15 | O=C(O)c1ccc2nc(CN3CCN(c4cccc(OCc5ccc(Cl)cc5F)n4)C(=O)C3)n(C[C@@H]3CCO3)c2c1 [Compound 55, (S)-2-((4-(6-((4-chloro-2-fluorobenzyl)oxy)pyridin-2-yl)-3-oxopiperazin-1-yl)methyl)-1-(oxetan-2-ylmethyl)-1H-benzo[d]imidazole-6-carboxylic acid]
18 | > 1000 | O=C(O)c1ccc2nc(CN3CCCN(c4cccc(OCc5ccc(Cl)cc5F)n4)C(=O)C3)n(C[C@@H]3CCO3)c2c1 [Compound 56, (S)-2-((4-(6-((4-chloro-2-fluorobenzyl)oxy)pyridin-2-yl)-3-oxo-1,4-diazepan-1-yl)methyl)-1-(oxetan-2-ylmethyl)-1H-benzo[d]imidazole-6-carboxylic acid]
19 | ≤ 1000 | O=C(O)c1ccc2nc(CN3CCC(=O)N(c4cccc(OCc5ccc(Cl)cc5F)n4)CC3)n(C[C@@H]3CCO3)c2c1 [Compound 57]
20 | ≤ 150 | O=C(O)c1ccc2nc(CN3CCC(F)(c4cccc(OCc5ccc(Cl)cc5F)n4)CC3)n(C[C@@H]3CCO3)c2c1 [Compound 67, (S)-2-((4-(6-(4-chloro-2-fluorobenzyloxy)pyridin-2-yl)-4-fluoropiperidin-1-yl)methyl)-1-(oxetan-2-ylmethyl)-1H-benzo[d]imidazole-6-carboxylic acid]
